A melting point compilation (Tetko et al.)

Row | SMILES | melting point [°C]
1 | CCN(CC)C(=O)c1ccc(NC(=O)CCl)cc1 | 115 to 117
2 | CC(C)(C)c1nnc(N)o1 | 226 to 228
3 | CC(C)C(Br)C(=O)NC1CCCC1 (stereo not given) | 99 to 101
4 | Cc1cc(Br)cc2c(O)c(C#N)cnc12 | 349 to 351
5 | Nc1nc2ccccc2n1C1CCCCC1 | 206 to 208
6 | COc1ccc2c(c1)NCCCC2 | 46 to 48
7 | CCc1ncc(N)cn1 | 125 to 127
8 | O=C1CC(c2ccccc2)C(=O)O1 (stereo not given) | 51 to 55
9 | O=C(O)C(NC1CC1)c1cc(Br)cs1 (stereo not given) | 155 to 157
10 | O=C(O)c1ccccc1-n1ncc(Cl)c(Cl)c1=O | 155 to 156
11 | COc1ncnc(N)c1C=O | 197 to 199
12 | Cc1nn(C)c2c1NCC1CCCN21 (stereo not given) | 159 to 161
13 | COc1cc(S(=O)(=O)Cl)cc(C(=O)O)c1OC | 159 to 161
14 | O=C(CBr)c1ccc(N2CCCC2=O)cc1 | 130 to 132
15 | O=C(O)c1cc(C2CC2)on1 | 97 to 99
16 | N#Cc1ccsc1NC(=O)CCl | 160 to 170
17 | NCCCN1C(=O)NC2(CCCCC2)C1=O | 124 to 126
18 | Nc1ccc(=O)n(Cc2ccc(Cl)c(Cl)c2)c1 | 131 to 133
19 | Cn1c(=O)oc2cc(N)ccc21 | 150 to 152
20 | O=C(O)c1cc2c(s1)CCOC2 | 148 to 150
21 | NC(=NO)C1CCCC1 | 74 to 76
22 | O=C(O)c1cc2c(cc1[N+](=O)[O-])OCCO2 | 221 to 223
23 | Nc1ccnn1CCc1ccccc1 | 67 to 69
24 | NC1CCC2SCCSC12 (stereo not given) | 49 to 51
25 | O=c1[nH]c(CCl)nc2sc3c(c12)CCCC3 | 265 to 267
26 | Cc1cc(C(C)(C)C)cc(C)c1CCNC(=O)CCl | 114 to 116
27 | NS(=O)(=O)c1ccc(CCCl)cc1 | 178 to 180

Row | SMILES | melting point [°C]
28 | NNC(=O)CSc1n[nH]c(=O)[nH]c1=O | 225 to 227
29 | CN1CCc2ncnc(Cl)c2C1 | 67 to 69
30 | COc1cc(C=O)cc(Cl)c1OC | 56 to 58
31 | Cc1cc(C)c(C(=O)CCl)c(C)c1C | 61 to 63
32 | O=C(O)c1cc(Cl)c(Br)[nH]1 | 168 to 170
33 | Sc1nncn1C1CC1 | 189 to 191
34 | O=C(CCl)Nc1cc(C(F)(F)F)ccc1N1CCCC1 | 271 to 272
35 | CNC1CCC(NC(=O)OC(C)(C)C)CC1 (stereo not given) | 72 to 74
36 | Cn1cc(C#N)cn1 | 59 to 61
37 | O=C(CN1CCNCC1)NCc1ccccc1 | 49 to 51
38 | O=S(=O)(Nc1nc2ccccc2nc1Cl)c1ccccc1C(F)(F)F | 157 to 159
39 | Nc1nnc(SCC(=O)O)s1 | 196 to 198
40 | O=C(O)CSc1nc2cc(Cl)ccc2n1Cc1ccccc1 | 155 to 157
41 | N#Cc1cnn(-c2ccc(Br)cc2)c1N | 177 to 179
42 | CC(Cl)C(=O)NC1CCCC1 (stereo not given) | 111 to 113
43 | NC(=S)C1CC1 | 112 to 114
44 | N#Cc1cnn(CCO)c1N | 156 to 158
45 | CCCc1noc2nc(C)cc(C(=O)O)c12 | 169 to 171
46 | C=CCNC(=S)N1CCOCC1 | 61 to 63
47 | Cc1ccc(-n2c(C)c[nH]c2=O)cc1 | 195 to 197
48 | CC1(C)CCc2c(sc(N)c2C(=O)N2CCOCC2)C1 | 138 to 140
49 | Cc1cc(F)c(C(=O)CCl)cc1F | 93 to 95
50 | O=[N+]([O-])c1cnc(Cl)c(Cl)c1 | 52 to 54
51 | COC(=O)C1CNC(=O)C1 (stereo not given) | 58 to 60
52 | O=C(O)C1CC(=O)N(c2ccc(S(=O)(=O)Cl)cc2)C1 (stereo not given) | 157 to 159
53 | O=C1C=C2NCCC=C2O1 | 109 to 111
54 | COc1c(Br)cc(Cl)cc1S(=O)(=O)Cl | 68 to 70

Row | SMILES | melting point [°C]
55 | Cc1ccc(-c2csc(=O)[nH]2)cc1 | 219 to 221
56 | Oc1ccnc(C2CC2)n1 | 152 to 154
57 | O=C(O)c1cc(S(=O)(=O)N2CCCCC2)ccc1N1CCCCC1 | 143 to 145
58 | COc1ccc(C(CN)c2c[nH]c3ccccc23)cc1 (stereo not given) | 127 to 129
59 | O=c1[nH]c(CO)nc2scc(-c3ccccc3)c12 | 259 to 261
60 | Oc1ccccc1-c1nnc2n1CCCCC2 | 271 to 273
61 | CS(=O)(=O)c1cccc(Cl)c1C=O | 102 to 104
62 | CC(C)(C)c1nc2ccc(N)cc2s1 | 137 to 139
63 | Cc1ccc(-c2csc(CC#N)n2)cc1 | 91 to 93
64 | O=S1(=O)C=CC(Br)C1 (stereo not given) | 54 to 55
65 | Cc1noc(NC(=O)CCl)n1 | 161 to 163
66 | NC(=S)CN1CCOCC1 | 178 to 180
67 | CCc1cccc2c(CCN)c[nH]c12 | 91 to 93
68 | CC(C)n1ncc2ccc(N)cc21 | 144 to 146
69 | Cc1cc(Br)cn2c3c(nc12)CCNC3 | 165 to 167
70 | CNS(=O)(=O)c1ccc(I)cc1 | 94 to 96
71 | O=C1CCCc2ccc(F)cc21 | 56 to 58
72 | Nc1ccc(-c2cncnc2)cc1 | 208 to 210
73 | O=C(O)c1cnn(C2CCCCC2)c1 | 197 to 199
74 | NNC(=O)C1CCN(c2ncccn2)CC1 | 237 to 239
75 | c1cc2c(cn1)CCN2 | 77 to 79
76 | O=S(=O)(c1cccc(-c2nnc(S)n2Cc2ccc(F)cc2)c1)N1CCOCC1 | 231 to 233
77 | CCNS(=O)(=O)c1c[nH]c(C(=O)O)c1 | 183 to 185
78 | Nc1ccc(N2CCOCC2)c(S(=O)(=O)Nc2cc(Cl)ccc2Cl)c1 | 66 to 68
79 | CN1CCC(Nc2ccc3cn[nH]c3c2)CC1 | 165 to 167
80 | Nc1cc(F)ccc1S(N)(=O)=O | 129 to 131

Next, values leading:

Row | melting point [°C] | SMILES
81 | 106 to 108 | CCc1cccc(Oc2ccc(F)cc2C=CC(=O)O)c1
82 | 119 to 121 | CC1(C(=O)O)CCCN1C(=O)OCc1ccccc1 (stereo not given)
83 | 126 to 128 | Cc1ccccc1C(=O)NC1CCN(C(=O)CCl)CC1
84 | 116 to 118 | N#CC(N)c1ccc2ccccc2c1 (stereo not given)
85 | 149 to 151 | NC(=NO)c1cccnc1N1CCCCC1
86 | 134 to 136 | COC(=O)c1cccc(OCC(N)=NO)c1
87 | 159 to 161 | COc1ccc2[nH]nc(N)c2c1
88 | 165 to 167 | CCc1cccc2c(C(=O)CCl)c[nH]c12
89 | 148 to 150 | COCCCNc1c(N)n(Cc2ccccc2)c(=O)[nH]c1=O
90 | 232 to 234 | O=C(O)c1ccc(S(=O)(=O)NCc2cccs2)cc1
91 | 251 to 253 | CC(=O)Oc1cccc2ccc(O)nc12
92 | 182 to 184 | NC(=O)c1ccc(OCCCl)cc1
93 | 189 to 191 | Cn1nc(CC(=O)O)c2ccccc2c1=O
94 | 271 to 273 | O=C(O)c1ccc(N2CCOC2=O)cc1
95 | 179 to 181 | Nc1ccc(F)c(NS(=O)(=O)c2cccs2)c1
96 | 162 to 164 | CN(c1cccc(Cl)c1)S(=O)(=O)c1cccc(C(=O)O)c1
97 | 168 to 170 | Cc1cc(NN)nc2c(C)cccc12
98 | 114 to 116 | O=Cc1cc(F)cc2cccnc12
99 | 154 to 156 | CCN(CC)C(=O)c1ccc(N)cc1Cl
100 | 60 to 62 | CCOc1ccc(Cl)nn1
101 | 79 to 81 | N#Cc1ccc(C=O)c(F)c1
102 | 129 to 131 | C#Cc1ccc(C(=O)O)cn1

Row | melting point [°C] | SMILES
103 | 42 to 45 | COC(=O)c1ccc(C(Br)Br)cc1
104 | 242 to 244 | N=C(N)Nc1nc2ccccc2[nH]1
105 | 87 to 89 | CC(Cl)C(=O)Nc1ccc([N+](=O)[O-])cc1Cl (stereo not given)
106 | 96 to 98 | Cc1ccc(CC(=O)O)cc1C
107 | 175 to 177 | O=C(CCl)NCc1cccc(NC(=O)C2CC2)c1
108 | 110 to 114 | Nc1sc2c(c1C(=O)c1cccc(F)c1)CCCC2
109 | 60 to 62 | CCNC(=O)c1cc(Cl)ccn1
110 | 163 to 165 | Cc1ccc(NC(=O)C2CC2)cc1N
111 | 102 to 104 | Cc1ccccc1Cc1cnc(N)s1
112 | 213 to 215 | Cc1ccc(-c2ccc(C(=O)O)c(F)c2)cc1C
113 | 55 to 57 | O=C(c1ccc(F)cc1)c1cnccn1
114 | 164 to 166 | Cc1c(C(=O)O)nnn1-c1ccc(Cl)cc1F
115 | 91 to 93 | COC(=O)C1CCN(c2nc3ccccc3s2)CC1
116 | 155 to 157 | COc1cc(NC(=O)OC(C)(C)C)c(Cl)cc1C(=O)O
117 | 227 to 229 | CC(C)(C)Cc1nc(-c2ccc(C(=O)O)cc2)no1
118 | 271 to 273 | Cc1ccc2c(Cl)c(C(=O)O)sc2c1
119 | 307 to 309 | Cc1nnc2ccc(C(=O)O)cn12
120 | 139 to 141 | CC(=O)Nc1ccc(OC2CCCCC2O)cc1 (stereo not given)
121 | 162 to 164 | O=C(O)CS(=O)(=O)c1ccc([N+](=O)[O-])cc1
122 | 146 to 148 | Cc1ccc(C(=O)N2CCCC(C(=O)O)C2)cc1 (stereo not given)
123 | 105 to 107 | COc1ccc(N)cc1S(=O)(=O)Nc1ccc(Cl)cc1
124 | 138 to 140 | Cc1cccc(C)c1OCC(=O)O

Row | melting point [°C] | SMILES
125 | 130 to 132 | NC(=O)c1ccc(OC(F)F)cc1
126 | 127 to 129 | CC(=O)Nc1cc(F)ccc1-c1csc(N)n1
127 | 134 to 136 | Nc1cccc(NC(=O)c2cccs2)c1
128 | 115 to 117 | CCn1c(=O)c(C(=O)CCl)c(N)n(Cc2ccccc2)c1=O
129 | 189 to 191 | O=C(O)CCCCNC(=O)c1ccc2[nH]nnc2c1
130 | 115 to 117 | O=[N+]([O-])c1cccc(-c2nnc(CCl)o2)c1
131 | 203 to 205 | O=C(O)c1cnn2cccnc12
132 | 117 to 119 | Cc1ccc(-c2csc(CC(N)=S)n2)cc1
133 | 61 to 63 | CC(O)c1nc2ccccc2s1 (stereo not given)
134 | 211 to 213 | Cc1cc(NC(=O)c2cccc(F)c2)sc1C(=O)O
135 | 120 to 122 | COC(=O)c1sccc1S(N)(=O)=O
136 | 124 to 126 | CCS(=O)(=O)c1ccccc1Oc1ccc(N)cc1
137 | 169 to 171 | NNC(=O)CSc1nc2ccccc2o1
138 | 151 to 153 | O=C(O)c1ccc(S(=O)(=O)Nc2cccc(Cl)c2F)o1
139 | 160 to 162 | Cc1ccccc1-c1nnc(N)o1
140 | 220 to 222 | NS(=O)(=O)c1cccc(N2C(=O)C=CC2=O)c1
141 | 319 to 321 | Nc1cc2ccccc2c(=O)[nH]1
142 | 169 to 171 | CC(N)C(=O)Nc1ccc(-n2cncn2)cc1 (stereo not given)
143 | 159 to 161 | CC(Cl)C(=O)Nc1ccc(I)cc1 (stereo not given)
144 | 152 to 154 | O=C(CCl)Nc1cc(Cl)ccc1C(=O)O
145 | 73 to 75 | O=C(O)C1CCN(C(=O)COc2ccccc2)CC1
